From publication doi:10.1101/2025.02.18.638599v1 (biorxiv, 2025)

Experiments:
TolC = target: T1, TolC (Escherichia coli, UniProt P02930); assay: label-free microscale thermophoresis; type: binding
T1 sequence (P02930 23-493): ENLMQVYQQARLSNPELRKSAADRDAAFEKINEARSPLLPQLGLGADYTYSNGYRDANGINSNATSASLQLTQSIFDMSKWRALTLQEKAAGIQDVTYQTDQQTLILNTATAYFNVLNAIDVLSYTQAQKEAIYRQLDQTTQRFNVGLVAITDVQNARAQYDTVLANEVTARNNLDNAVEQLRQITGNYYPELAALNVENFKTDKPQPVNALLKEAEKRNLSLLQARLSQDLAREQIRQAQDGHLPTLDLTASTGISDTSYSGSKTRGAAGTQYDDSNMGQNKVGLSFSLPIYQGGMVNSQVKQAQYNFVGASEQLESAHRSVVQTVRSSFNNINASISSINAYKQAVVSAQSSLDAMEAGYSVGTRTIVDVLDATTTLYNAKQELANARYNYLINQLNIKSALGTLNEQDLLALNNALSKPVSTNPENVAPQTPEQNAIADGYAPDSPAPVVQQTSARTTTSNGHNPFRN

AcrB = target: T2, AcrB (Escherichia coli, UniProt P31224); assay: label-free microscale thermophoresis; type: binding
T2 sequence (P31224 1-1049): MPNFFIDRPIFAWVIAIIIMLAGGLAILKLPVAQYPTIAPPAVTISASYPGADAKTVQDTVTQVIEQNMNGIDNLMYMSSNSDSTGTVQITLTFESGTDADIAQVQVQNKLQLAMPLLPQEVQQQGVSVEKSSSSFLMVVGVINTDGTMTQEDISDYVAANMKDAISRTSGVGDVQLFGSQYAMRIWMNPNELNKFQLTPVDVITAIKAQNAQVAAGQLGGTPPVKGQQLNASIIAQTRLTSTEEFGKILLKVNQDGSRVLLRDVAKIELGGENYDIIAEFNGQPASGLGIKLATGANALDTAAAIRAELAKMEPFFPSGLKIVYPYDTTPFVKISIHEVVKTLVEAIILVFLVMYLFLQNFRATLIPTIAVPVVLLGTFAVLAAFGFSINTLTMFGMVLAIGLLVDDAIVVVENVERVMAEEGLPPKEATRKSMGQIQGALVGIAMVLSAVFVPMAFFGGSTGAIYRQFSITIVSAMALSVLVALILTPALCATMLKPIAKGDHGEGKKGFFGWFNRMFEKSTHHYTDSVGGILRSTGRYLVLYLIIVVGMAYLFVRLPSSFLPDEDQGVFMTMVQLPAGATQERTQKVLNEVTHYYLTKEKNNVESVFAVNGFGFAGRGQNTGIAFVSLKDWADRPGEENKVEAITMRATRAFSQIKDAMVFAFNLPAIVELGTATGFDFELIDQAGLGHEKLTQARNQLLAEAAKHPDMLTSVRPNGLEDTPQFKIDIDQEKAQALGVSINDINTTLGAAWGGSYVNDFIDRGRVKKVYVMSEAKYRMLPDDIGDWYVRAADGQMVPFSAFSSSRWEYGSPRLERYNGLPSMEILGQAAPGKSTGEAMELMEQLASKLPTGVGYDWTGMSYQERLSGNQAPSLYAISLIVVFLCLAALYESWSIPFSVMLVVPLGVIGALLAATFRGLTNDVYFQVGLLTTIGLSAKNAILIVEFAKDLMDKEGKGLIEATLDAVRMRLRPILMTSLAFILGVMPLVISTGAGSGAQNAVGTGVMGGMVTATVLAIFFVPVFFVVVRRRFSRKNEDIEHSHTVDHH

E. coli BW25113 [1] = assay: microbe, parasite or virus in culture; conditions: Escherichia coli, BW25113, 24 h, read-out: MIC, E. coli BW25113
E. coli JW5503 = assay: microbe, parasite or virus in culture; conditions: Escherichia coli, JW5503, 24 h, read-out: MIC, E. coli JW5503
E. coli BW25113 [2] = test system: E. coli BW25113; parameters: species or system Escherichia coli; conditions: compound alone; 24 h; inhibitor

| Kd (TolC) | Kd (AcrB) | MIC (E. coli BW25113 [1]) | MIC (E. coli JW5503) | MIC, E. coli BW25113 (E. coli BW25113 [2]) | SMILES |
| --- | --- | --- | --- | --- | --- |
| 282 µM | 198 µM | > 125 µM | > 75 µM | – | CNC(=O)c1ccccc1Nc1nc(Nc2ccc3c(c2OC)CCC[C@H](N2CCN(CCO)CC2)C3)ncc1Cl [CEP-37440] |
| – | – | – | – | >125 µM | COc1c(N)ccc2c1CCCC(N1CCN(CCO)CC1)C2 (centres unmarked) [LP-115] |
